14 molecules from patent US4734416A, “Pharmaceutically useful carbostyril derivatives” (Otsuka Pharmaceutical Co., Ltd., priority 1978, dated 1988) can be followed below.

Structures can show the parent of a compound that is named as a salt.

The nature of data set [1]: Halothane anesthesia increasing activity (righting reflex). The data set is classed as in vivo, mouse (male, ddy-strain). As to conditions: oral; for Time (minutes) between introduction of anesthesia and waking: 8 mg/kg, 1 hour before 4% Halothane. As for the experimental part:
Male mice of ddy-strain having about 20 g body weight are used. One test group consists of 10 mice. An aqueous Gummi Arabicum suspension of test compound (80 mg of a compound to be tested and 1 g of Gummi Arabicum/100 ml of physiological NaCl solution) is administered orally to each mouse at the dosage of 8 mg of test compound/kg body. One hour after the administration, each mouse is placed in a gas respiration chamber (13×13×24 cm) and oxygen gas containing 4% of Halothane [2-bromo-2-chloro-1,1,1-trifluoroethane] is blown into the chamber at the velocity of 2 l/min for 3 minutes. A mouse anaesthetized is taken out from the chamber and the time between the introduction of anesthesia to waking is measured by righting reflex as the index. To mice of the control group, 1% Gummi Arabicum aqueous physiological solution is orally administered at the dosage of 0.1 ml/10 g body. [Reference: M. J. Turnbull and J. W. Watkins: Br. J. Pharmac., 58, 27-35 (1976)]
Same procedures as mentioned in (II)-(A) are employed, except that the amount of test compound to be orally administered is changed in 4 steps at the dosage of 0.5 mg/kg, 1 mg/kg, 2 mg/kg and 4 mg/kg respectively to measure the relationship between the dosage and degree of strength of anesthesia increasing activity.

Data set [2] deals with T1, enucleated ileum of a guinea pig (Cavia porcellus, UniProt P31389).
T1 construct: the tissue of ileum is cut to a length of 2.5 to 3.0 cm and suspended in an organ bath; from tissue; host or cells: isolated ileum from the ileocecal region of male guinea pig
T1 sequence (P31389 whole entry): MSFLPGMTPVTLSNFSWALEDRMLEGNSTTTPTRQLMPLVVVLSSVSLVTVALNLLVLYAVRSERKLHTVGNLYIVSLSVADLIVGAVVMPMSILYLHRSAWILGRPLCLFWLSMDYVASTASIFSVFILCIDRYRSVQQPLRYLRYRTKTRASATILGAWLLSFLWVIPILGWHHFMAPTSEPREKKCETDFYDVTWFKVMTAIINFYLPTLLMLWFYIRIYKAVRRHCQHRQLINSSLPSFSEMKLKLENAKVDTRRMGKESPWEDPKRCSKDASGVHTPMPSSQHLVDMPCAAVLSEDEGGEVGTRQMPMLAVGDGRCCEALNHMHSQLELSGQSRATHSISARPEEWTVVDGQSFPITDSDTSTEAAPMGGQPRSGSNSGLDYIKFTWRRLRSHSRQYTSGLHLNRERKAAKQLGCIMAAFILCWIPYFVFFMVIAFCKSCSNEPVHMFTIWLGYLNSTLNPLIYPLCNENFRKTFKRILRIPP
Nature of the data set: Antihistamine activity test in vitro (enucleated guinea pig ileum, histamine retraction, pA2 by Van Rossam method). The conditions noted are these: 10^-6 g/ml test compound, 5 minutes before histamine, 36° C. On the procedure:
As to the test method for determining antihistamine activity of a compound in vitro, a method of using an enucleated ileum of a guinea pig is generally accepted.
A male guinea pig having 300 to 500 g body weight is killed by blood letting. An ileum having a length of 15 cm being enculeated from the ileocecal region is dipped into Tyrode's solution (which is prepared from […], 0.2 g of KCl, 0.2 g of CaCl2, 1.0 g of glucose, 1.0 g of NaHCO3, 0.065 g of NaHPO4.2H2 O and 0.2135 g of MgCl2.6H2 O to make 1000 ml in total volume by adding water). Then the tissue of ileum is cut to a length of 2.5 to 3.0 cm and suspended in an organ bath filled with 30 ml of Tyrode's solution. The organ bath is kept at a temperature of 36° C. and a mixed gas consisting of 5% of CO2 and 95% of O2 is blown into the bath. 10 Minutes after the blowing, 10^-6 M of histamine is added to the bath to examine the sensitivity of the tissue and a reaction curve (control) with respect to the dosage of histamine is obtained. After the dosage of histamine-reaction curve (control) becomes constant, 10^-6 g/ml of a compound to be tested is added to the bath and further histamine is added 5 minutes later to obtain a dosage-reaction curve. Retraction of the ileum is recorded on a pen-recorder through an isotonic transducer [TD-112S manufactured by Nihon Koden]. Antihistamine activity of the test compound is determined as pA2 value by the "Van Rossam" method [J. M. Van Rossam; Arch. Inst. Pharmacodyn., 143, 299 (1963)] wherein the maximum retraction of ileum caused by histamine shown in the control curve is 100%.

Data set [3] is described as follows: Activity for inhibiting fighting behavior of mouse isolated singly for a long period of time. The data set is classed as in vivo, mouse (male, ddy-strain). As to conditions: positive if fighting no longer than 5 seconds in a minute, range in parentheses, read-out: ED50 (inhibition of fighting behavior). As for the experimental part: Individual male mice of ddy-strain having 15 to 20 g of body weight are breeded separately in respective cages for 1 month. One test group consists of 10 pairs of mice. The pairs of mice are selected so that when one mouse is taken into the home cage of another, the two mice fight together continuously for over 30 seconds. ED50 values are calculated by administering the respective test compounds to each test groups of mice. Activity for inhibiting fighting behavior of the test compound is determined as positive in case the administered mice only continue the fighting for no longer than 5 seconds in a minute. When the mice continue the fighting over 5 seconds they are forced to separate for the purpose of reducing the number of injured mice. [Reference: C. Y. Yen, R. L. Stanger and N. Millman: Arch. Int. Pharmacodyn., 123, 179 (1959)]

The nature of data set [4]: in vivo. The conditions noted are these: mouse. On the procedure: Mice of ddy-strain having 20-22 g of body weight are used. One test group consists of 10 mice.
Oral administration: Compound to be tested is suspended in 1% Gummi Arabicum physiological NaCl aqueous solution.
Intravenuous administration: Compound to be tested is dissolved in 50% propyleneglycol aqueous solution.

The nature of data set [5]: Hexabarbital sleep increasing activity (righting reflex). The conditions noted are these: oral, Hexabarbital Na 70 mg/kg i.p. The format is in vivo, mouse (male, ddy-strain). On the procedure: Male mice of ddy-strain having 20 to 25 g body weight are starved for 24 hours. One test group consists of 10 mice. An aqueous Gummi Arabicum suspension of test compound (0.05 g of test compound and 1 g of Gummi Arabicum/100 ml of physiological NaCl solution) is administered orally at the dosage mentioned in the Table 4. One hour after the administration 0.7% of Hexabarbitol.Na-salt is intraperitonerally administered at the dosage of 70 mg/kg body weight. The time between the introduction of sleep to waking is measured by righting reflex as the index. [Reference: A. M. Hjort, De E. J. Beer and D. W. Fassett; J. Pharmac., Exptl.

In the case of `O=C1CCc2c(cccc2OCCCN2CCN(c3ccccc3)CC2)N1` [Compound 5, 5-[3-(4-Phenylpiperazinyl)propoxy]-3,4-dihydrocarbostyril dihydrochloride], the “Anesthesia increasing activity” value was 5.2 ± 2.1 min in data set [1] (0.5 mg/kg), 8.5 ± 3.5 min in data set [1] (1 mg/kg), 9.6 ± 4.1 min in data set [1] (2 mg/kg) and 12.7 ± 3.9 min in data set [1] (4 mg/kg). Besides, the “Time (minutes) between introduction of anesthesia and waking” value (“Time (minutes) between introduction” for short) in data set [1] is 16.9 ± 7.9 min. This molecule gave a Kb in data set [2] of 1.35 nM. For the same molecule, the ED50 (usually the dose that gives a 50% effect, or the effect in half of the subjects) in data set [3] is 1.28 mg/kg.

`CN1C(=O)CCc2c(OCC(O)CN3CCN(c4ccccc4)CC3)cccc21` (centres unmarked) [Compound 7, 1-Methyl-5-[2-hydroxy-3-(4-phenylpiperazinyl)propoxy]-3,4-dihydrocarbostyril monohydrochloride]: the “Anesthesia increasing activity” value in data set [1] (0.5 mg/kg) was 5.3 ± 2.5 min; in data set [1] (1 mg/kg), 7.4 ± 3.1 min; in data set [1] (2 mg/kg), 9.5 ± 3.8 min; in data set [1] (4 mg/kg), 13.7 ± 4.7 min. Further, the “Time (minutes) between introduction” value in data set [1] turned out to be 8.9 ± 2.4 min. Further, the LD50 (in general, the dose expected to kill half of the subjects tested) turned out to be 432 mg/kg in data set [4] (iv, female mice); 424 mg/kg in data set [4] (iv, male mice); 1650 mg/kg in data set [4] (po, female mice); 1600 mg/kg in data set [4] (po, male mice). In data set [2], this molecule gave a Kb of 0.132 nM.

`CN1C(=O)CCc2c(OCCCN3CCN(c4ccccc4)CC3)cccc21` [Compound 9, 1-Methyl-5-[3-(4-phenylpiperazinyl)propoxy]-3,4-dihydrocarbostyril monohydrochloride]: the “Time (minutes) between introduction” value in data set [1] amounted to 9.5 ± 3.2 min. For the same molecule, the Kb in data set [2] was 0.0263 nM. For the same molecule, the 50% effective dose (ED50) in data set [3] stood at 1.52 mg/kg.

Regarding `COc1ccccc1N1CCN(CCCOc2ccc3c(c2)NC(=O)CC3)CC1` [Compound 17, 7-{3-[4-(2-Methoxyphenyl)piperazinyl]propoxy}-3,4-dihydrocarbostyril], the “Time (minutes) between introduction” value in data set [1] worked out at 13.6 ± 5.2 min. Further, the LD50 was found to be 216 mg/kg in data set [4] (iv, female mice); 218 mg/kg in data set [4] (iv, male mice); 860 mg/kg in data set [4] (po, female mice); 898 mg/kg in data set [4] (po, male mice). In data set [2], the Kb is 0.871 nM. The ED50 in data set [3] was determined as 0.92 mg/kg. Further, the “Sleep time (min.) [Mean ± SD]” value came to 39.51 ± 8.45 min in data set [5] (0.125 mg/kg), 45.57 ± 10.05 min in data set [5] (0.25 mg/kg), 51.77 ± 6.60 min in data set [5] (0.5 mg/kg) and 56.92 ± 6.13 min in data set [5] (1.0 mg/kg).

In the case of `O=C1CCc2cc(Cl)c(OCCCN3CCN(c4ccccc4)CC3)c(Br)c2N1` [Compound 28, 6-Chloro-8-bromo-7-[3-(4-phenylpiperazinyl)propoxy]-3,4-dihydrocarbostyril dihydrochloride], the “Time (minutes) between introduction” value in data set [1] worked out at 10.2 ± 5.8 min. Moreover, in data set [2], the Kb is 0.229 nM.

For the molecule `COc1cc(N2CCN(CCCOc3ccc4c(c3)NC(=O)CC4)CC2)cc(OC)c1OC` [Compound 29, 7-{3-[4-(3,4,5-Trimethoxyphenyl)piperazinyl]propoxy}-3,4-dihydrocarbostyril dihydrochloride], the “Anesthesia increasing activity” value in data set [1] (0.5 mg/kg) is 5.6 ± 2.8 min; in data set [1] (1 mg/kg) it was 6.6 ± 3.1 min; in data set [1] (2 mg/kg), 8.3 ± 3.7 min; in data set [1] (4 mg/kg) it was 13.6 ± 4.9 min. In addition, the “Time (minutes) between introduction” value in data set [1] came out at 9.3 ± 4.4 min. This molecule gave a Kb in data set [2] of 2.69 nM.

For `O=C1CCc2c(cccc2OCCCN2CCN(C3CCCCC3)CC2)N1` [Compound 30, 5-[3-(4-Cyclohexylpiperazinyl)propoxy]-3,4-dihydrocarbostyril], the “Time (minutes) between introduction” value in data set [1] was determined as 7.9 ± 3.7 min. Further, in data set [2], the Kb is 44.7 nM.

In the case of `CC(=O)OCCN1CCN(CCCOc2ccc3c(c2)NC(=O)CC3)CC1` [Compound 32, 7-{3-[4-(2-Acetyloxyethyl)piperazinyl]propoxy}-3,4-dihydrocarbostyril], in data set [1], the “Time (minutes) between introduction” value amounted to 7.9 ± 3.1 min. For the same molecule, in data set [2], the Kb is 30.2 nM.

In the case of `O=C1CCc2ccc(OCCCN3CCN(CCO)CC3)cc2N1` [Compound 33, 7-{3-[4-(2-Hydroxyethyl)piperazinyl]propoxy}-3,4-dihydrocarbostyril], the “Time (minutes) between introduction” value in data set [1] amounted to 7.4 ± 2.6 min. In data set [2], the Kb is 95.5 nM.

`CC(=O)N1CCN(CCCOc2ccc3c(c2)NC(=O)CC3)CC1` [Compound 34, 7-[3-(4-Acetylpiperazinyl)propoxy]-3,4-dihydrocarbostyril]: in data set [1], the “Time (minutes) between introduction” value came to 7.8 ± 3.4 min. The Kb in data set [2] is 57.5 nM.

With `O=C1CCc2ccc(OCCCN3CCN(C(=O)c4ccccc4)CC3)cc2N1` [Compound 35, 7-[3-(4-Benzoylpiperazinyl)propoxy]-3,4-dihydrocarbostyril], in data set [1], the “Time (minutes) between introduction” value came to 8.2 ± 3.7 min. For the same molecule, the Kb in data set [2] is 2.63 nM.

Turning to `O=c1ccc2cc(OCCCN3CCN(c4ccccc4)CC3)ccc2[nH]1` [Compound 36, 6-[3-(4-Phenylpiperazinyl)propoxy]carbostyril], the “Time (minutes) between introduction” value in data set [1] was determined as 15.3 ± 3.1 min. Further, the Kb in data set [2] is 10.2 nM.

Regarding `O=C1CCc2ccc(OCCCN3CCN(c4cccc(Cl)c4)CC3)cc2N1` [Compound 39, 7-{3-[4-(3-Chlorophenyl)piperazinyl]propoxy}-3,4-dihydrocarbostyril], in data set [1], the “Time (minutes) between introduction” value stood at 5.0 ± 2.9 min. Also, the LD50 was found to be 293 mg/kg in data set [4] (iv, female mice); 310 mg/kg in data set [4] (iv, male mice); 1100 mg/kg in data set [4] (po, female mice); 1210 mg/kg in data set [4] (po, male mice). This molecule also gave a Kb in data set [2] of 0.182 nM. Also, the ED50 in data set [3] was found to be 0.96 mg/kg.

For `CN1C(=O)CN=C(c2ccccc2)c2cc(Cl)ccc21` [Diazepam, reference compound], the ED50 in data set [3] came to 7.29 mg/kg.
